The values below come from patent US6984657B1, “Indole derivatives as MCP-1 receptor antagonists” (AstraZeneca AB, priority 2000, dated 2006).

The subject of assay [1] is THP-1 cells. Description: hMCP-1 mediated chemotaxis of THP-1 cells. Format: cell-based, human. The following applies: 2 h at 37° C. Here is the method: In vitro chemotaxis assays were performed using the human monocytic cell line THP-1. Cell migration through polycarbonate membranes was measured by enumerating those passing through either directly by Coulter counting or indirectly by use of a colourimetric viability assay measuring the cleavage of a tetrazolium salt by the mitochondrial respiratory chain (Scudiero D. A. et al. 1988, Cancer Res., 48, 4827-4833). […]
In an alternative form of the above assay, fluorescently tagged cells can be used in order to assist in end point detection. […] At the end of the incubation, cells are washed off the upper face of the filter with phosphate buffered saline, the filter removed from the plate and the number of cells attracted to either the underside of the filter or the lower well estimated by reading fluorescence at 485 nm excitation, 538 nm emission wavelengths (fmax, Molecular Devices). The data was input into a spreadsheet, corrected for any random migration in the absence of chemoattractant and the average fluorescence values, standard error of the mean, percentage inhibition and IC50 of compounds under test and significance tests can be calculated. […]

For another assay, the target named is T1, MCP-1 receptor B (CCR2B) (Homo sapiens, UniProt P41597).
T1 construct: expressed in transfected cells; host or cells: CHO-K1 clone 7 (CHO-CCR2B), membrane fragments
T1 sequence (P41597 1-360 isoform P41597-2): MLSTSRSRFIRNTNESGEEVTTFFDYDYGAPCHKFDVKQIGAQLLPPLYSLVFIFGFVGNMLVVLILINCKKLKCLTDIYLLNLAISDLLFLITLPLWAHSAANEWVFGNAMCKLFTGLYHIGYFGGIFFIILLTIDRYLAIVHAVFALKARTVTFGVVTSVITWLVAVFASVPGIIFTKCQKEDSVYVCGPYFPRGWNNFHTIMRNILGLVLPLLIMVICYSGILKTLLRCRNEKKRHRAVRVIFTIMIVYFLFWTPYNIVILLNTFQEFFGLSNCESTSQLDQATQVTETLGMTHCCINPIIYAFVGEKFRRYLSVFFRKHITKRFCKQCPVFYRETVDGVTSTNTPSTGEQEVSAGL
Description: hMCP-1 receptor binding assay (125I-MCP-1, CHO-CCR2B cell membranes). The following applies: CHO-CCR2B membrane fragments. From the text:
The MCP-1 receptor B (CCR2B) cDNA was cloned by PCR from THP-1 cell RNA using suitable oligonucleotide primers based on the published MCP-1 receptor sequences (Charo et al., 1994, Proc. Natl. Acad. Sci. USA, 91, 2752). The resulting PCR products were cloned into vector PCR-II™ (In Vitrogen, San Diego, Calif.). Error free CCR2B cDNA was subcloned as a Hind III-Not I fragment into the eukaryotic expression vector pCNA3 (In Vitrogen) to generate pCDNA3/CC-CKR2A and pCDNA3/CCR2B respectively.
Linearised pCDNA3/CCR2B DNA was transfected into CHO-K1 cells by calcium phosphate precipitation (Wigler et al., 1979, Cell, 16, 777). Transfected cells were selected by the addition of Geneticin Sulphate (G418, Gibco BRL) at 1 mg/ml, 24 hours after the cells had been transfected. Preparation of RNA and Northern blotting were carried out as described previously (Needham et al., 1995, Prot. Express. Purific., 6, 134). CHO-K1 clone 7 (CHO-CCR2B) was identified as the highest MCP-1 receptor B expresser.
CHO-CCR2B cells were grown in DMEM supplemented with 10% foetal calf serum, 2 mM glutamine, 1× Non-Essential Amino Acids, 1× Hypoxanthine and Thymidine Supplement and Penicillin-Streptomycin (at 50 μg streptomycin/ml, Gibco BRL). Membrane fragments were prepared using cell lysis/differential centrifugation methods as described previously (Siciliano et al., 1990, J. Biol. Chem, 265, 19658). […]

Assay [2] concerns THP-1 cells. Put plainly: MCP-1 mediated calcium flux in THP-1 cells. It is filed as cell-based, human. The following applies: stimulation of THP-1 cells with hMCP-1, FURA-2, approximate; read-out: EC50 of the rise in [Ca2+]i. Here is the method:
The human monocytic cell line THP-1 was grown in a synthetic cell structure medium RPMI 1640 supplemented with 10% foetal calf serum, 6 mM glutamine and Penicillin-Streptomycin (at 50 μg streptomycin/ml, Gibco BRL). THP-1 cells were washed in HBSS (lacking Ca^2+ and Mg^2+)+1 mg/ml BSA and resuspended in the same buffer at a density of 3×10^6 cells/ml. The cells were then loaded with […] FURA-2/AM for 30 min at 37° C., washed twice in HBSS, and resuspended at 1×10^6 cells/ml. THP-1 cell suspension (0.9 ml) was added to a 5 ml disposable cuvette containing a magnetic stirrer bar and 2.1 ml of prewarmed (37° C.) HBSS containing 1 mg/ml BSA, 1 mM MgCl2 and 2 mM CaCl2. The cuvette was placed in a fluorescence spectrophotometer (Perkin Elmer, Norwalk, Conn.) and preincubated for 4 min at 37° C. with stirring. Fluorescence was recorded over 70 sec and cells were stimulated by addition of hMCP-1 to the cuvette after 10 sec. [Ca^2+]i was measured by excitation at 340 nm and 380 nm alternatively and subsequent measurement of the intensity of the fluorescence emission at 510 nm. […] Rmax is the maximal fluorescence ratio determined after addition of […] Ionomycin, Rmin is the minimal ratio determined by the subsequent addition of a Ca^2+ free solution containing 5 mM EGTA, and Sf2/Sb2 is the ratio of fluorescence value at 380 nm excitation determined at Rmin and Rmax, respectively. […]
Background: A change in cytosolic calcium serves as a functional read-out for many receptors and channels.

pEC50, pIC50, pKd: −log10 of the molar value.

Consider “MCP-1: Human Monocyte Chemoattractant Protein-1, a C—C chemokine; ligand of the CCR2 receptor”, for which the “concentration of maximal cell migration (biphasic response)” value in the assay with THP-1 cells [1] was 0.5-1.0 nm. In the assay with MCP-1 receptor B (CCR2B) (cold competition of unlabeled MCP-1 with 100 pM 125I-labeled MCP-1), this substance showed a pIC50 of 9.96. This substance showed a pKd with MCP-1 receptor B (CCR2B) (equilibrium binding, room temperature) of 9.92. Besides, the pEC50 in the assay on THP-1 cells [2] is roughly 8.70.

The pIC50 is the negative decadic logarithm of the IC50, by convention in mol/L. The low end stands for a large IC50, the high end for a small IC50. What is called pKd is the Kd on a negative log10 scale, so that one unit is a factor of ten. Broadly, the pEC50 is the negative decadic logarithm of the EC50, by convention in mol/L.
